From PubChem BioAssay (NCI)
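Method: 48-hour compound exposure of cells in 96-well plates, five concentrations, linear interpolation of endpoints. GI50 marks 50% less growth. The concentration for full growth arrest is given as TGI.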

Columns and labels:
Assay in all cases: DTP human tumour cell line panel, 48 h
EKVX NSCLC = tested on: EKVX NSCLC
IGROV1 ovarian = tested on: IGROV1 ovarian
MALME-3M melanoma = tested on: MALME-3M melanoma
NCI-H460 lung = tested on: NCI-H460 lung
NCI-H522 lung = tested on: NCI-H522 lung
SF-295 CNS = tested on: SF-295 CNS
SW-620 colon = tested on: SW-620 colon
TK-10 renal = tested on: TK-10 renal
UO-31 renal = tested on: UO-31 renal

| Structure (SMILES) | TGI (EKVX NSCLC) [µM] | TGI (IGROV1 ovarian) [µM] | TGI (MALME-3M melanoma) [µM] | TGI (NCI-H460 lung) [µM] | TGI (NCI-H522 lung) [µM] | TGI (SF-295 CNS) [µM] | TGI (SW-620 colon) [µM] | TGI (TK-10 renal) [µM] | TGI (UO-31 renal) [µM] | GI50 (EKVX NSCLC) [µM] | GI50 (IGROV1 ovarian) [µM] | GI50 (NCI-H460 lung) [µM] | GI50 (NCI-H522 lung) [µM] | GI50 (SF-295 CNS) [µM] | GI50 (SW-620 colon) [µM] | GI50 (TK-10 renal) [µM] | GI50 (UO-31 renal) [µM] | GI50 (MALME-3M melanoma) [µM] |
| --- | --- | --- | --- | --- | --- | --- | --- | --- | --- | --- | --- | --- | --- | --- | --- | --- | --- | --- |
| CCCCCCCCCC(=O)OCC1OC(n2cc(F)c(=O)[nH]c2=O)C(N)C(OC(=O)CCCCCCCCC)C1O (configuration not stated) | 34.1 | > 100 | 35.2 | 40.5 | 30.1 | 31.9 | 31.8 | > 100 | 54.9 |  |  |  |  |  |  |  |  |  |
| CCN(CC)CCOc1cc2c(C(=O)OC)c(C)oc2cc1C(C)=O | 22.1 | 33 |  | 91.8 | > 100 | 29.1 | 23.9 | 31.4 | > 100 | 8.75 | 8.53 | 29.9 | 13.2 | 14.8 | 7.56 | 16.8 | 22.5 |  |
| Clc1ccc2nc(CCSCCc3nc4ccc(Cl)cc4[nH]3)[nH]c2c1 | 31.3 | 25.4 |  | 31.7 | 26.5 | 20.2 | 27 | 22.1 | 24.7 |  |  |  |  |  |  |  |  |  |
| O=C(O)/C(Cl)=C(\Cl)C(=O)Nc1ccccc1 | > 100 | > 100 | > 100 | > 100 |  | > 100 | > 100 | > 100 | > 100 |  |  |  |  |  |  |  |  |  |
| Nc1nc(N)c(-c2ccc(Cl)cc2)c(CCC(=O)Nc2cccc(C(F)(F)F)c2)n1 | > 100 | > 100 | > 100 | > 100 | > 100 | > 100 | > 100 | > 100 | > 100 |  |  |  |  |  |  |  |  |  |
| COc1ccc2c(c1)[n+]([O-])c(-c1nc3ccccc3s1)c(N)[n+]2[O-] | > 100 | > 100 | > 100 | > 100 | > 100 | > 100 | > 100 |  | > 100 |  |  |  |  |  |  |  |  |  |
| CC12CC3CC(C)(C1)CC(N=[N+]=[N-])(C3)C2 | > 100 | > 100 | > 100 | > 100 | > 100 | > 100 | > 100 | > 100 | > 100 |  |  |  |  |  |  |  |  |  |
| COC(=O)C1C(=O)O[C@@H](c2ccc(OC)cc2OC)C1C(=O)OC (some centres not stated) | > 100 | > 100 | > 100 | > 100 |  | > 100 | > 100 | > 100 | > 100 |  |  |  |  |  |  |  |  |  |
| CN=S(=O)(C[C@]1(O)CC2OC1C1OC(C)(C)OC21)c1ccccc1 (some centres not stated) | > 100 | > 100 | > 100 | > 100 | > 100 | > 100 | > 100 | > 100 |  |  |  |  |  |  |  |  |  |  |
| CCN(CC)c1ccc2c(c1)N=C1N=CC=CN1C2(c1ccc(N(C)C)cc1)c1ccc(N(C)C)cc1 | 23.8 | 26.9 | 27.4 | 22.2 | 5.12 | 15.6 |  | 28.6 | 22 |  |  |  |  |  |  |  |  |  |
| O=C(C=Nc1ccccc1C(=O)[O-])c1cccs1.O=C(C=Nc1ccccc1C(=O)[O-])c1cccs1.[Cu+2] |  | > 100 | > 100 | > 100 | > 100 | > 100 | > 100 | > 100 | > 100 |  |  |  |  |  |  |  |  |  |
| CCCCCCCCCCCC(=O)OCC1OC(n2cc(F)c(=O)[nH]c2=O)C(N)C(O)C1O (configuration not stated) | > 100 | > 100 | > 100 | > 100 | > 100 | > 100 | > 100 |  | > 100 |  |  |  |  |  |  |  |  |  |
| O=C(CC(=O)C(F)(F)F)c1csc2ccccc12 | > 100 | > 100 | 67.6 | > 100 | > 100 | 37 | > 100 | 28.4 | > 100 |  |  |  |  |  |  |  |  |  |
| COC(=O)C1=CC2OC13CC1CCC3(C2=O)C1(C)C (configuration not stated) |  | 39.9 | 28.5 | > 100 | 9.37 | 40.5 | 19.4 | 22.6 | 19.1 |  |  |  |  |  |  |  |  |  |
| CCC[CH2][Sn]([CH2]CCC)([S]C1=NCCS1)[S]C1=NCCS1 | 2.71 | 2.74 | 0.555 | 3.26 | 0.0562 | 2.02 | 0.441 | 1.11 | 2.51 | 1.34 | 1.3 | 1.52 | 0.0133 | 0.73 | 0.145 | 0.39 | 1.13 | 0.157 |
